Bridge positions count the residues as written; N and C are the ends. Square brackets hold non-standard residues; d marks the D form. Peptide text beside a SMILES is read from it. * marks the point of attachment. ξ: configuration not given here. Ala(indol-4-yl) = N[C@@H](Cc1cccc2[nH]ccc12)C(=O)O; Phe(4-COOH) = N[C@@H](Cc1ccc(C(=O)O)cc1)C(=O)O; Bip = N[C@@H](Cc1ccc(-c2ccccc2)cc1)C(=O)O; Phe(4-CN) = N#Cc1ccc(C[C@H](N)C(=O)O)cc1; Phe(3-F) = N[C@@H](Cc1cccc(F)c1)C(=O)O; Phe(3-Me) = Cc1cccc(C[C@H](N)C(=O)O)c1; Bta = N[C@@H](Cc1csc2ccccc12)C(=O)O; Nva(4-oxo) = CC(=O)C[C@H](N)C(=O)O; Val(3-OH) = CC(C)(O)[C@H](N)C(=O)O; 2Pal = N[C@@H](Cc1ccccn1)C(=O)O; 3Pal = N[C@@H](Cc1cccnc1)C(=O)O; 4Pal = N[C@@H](Cc1ccncc1)C(=O)O; Cha = N[C@@H](CC1CCCCC1)C(=O)O; Cit = NC(=O)NCCC[C@H](N)C(=O)O; Ile(3ξ) = CCC(C)[C@H](N)C(=O)O; Thr(3ξ) = CC(O)[C@H](N)C(=O)O; Carboxymethyl = O=C(O)C*; NMeA = CN[C@@H](C)C(=O)O; Orn = NCCC[C@H](N)C(=O)O; Dab = NCC[C@H](N)C(=O)O; Dap = NC[C@H](N)C(=O)O

The results in this text go back to patent publication US20240409585A1, “MACROCYCLIC IMMUNOMODULATORS” (priority 2021, published 2024).

In this assay the target is T1, PE-labeled human PD-L1-Ig binding to Jurkat cell line over-expressing human PD-1 (Jurkat-PD-1) (Homo sapiens, UniProt Q15116).
T1 construct: expressed in transfected cells; host or cells: Jurkat
T1 sequence (Q15116 25-288): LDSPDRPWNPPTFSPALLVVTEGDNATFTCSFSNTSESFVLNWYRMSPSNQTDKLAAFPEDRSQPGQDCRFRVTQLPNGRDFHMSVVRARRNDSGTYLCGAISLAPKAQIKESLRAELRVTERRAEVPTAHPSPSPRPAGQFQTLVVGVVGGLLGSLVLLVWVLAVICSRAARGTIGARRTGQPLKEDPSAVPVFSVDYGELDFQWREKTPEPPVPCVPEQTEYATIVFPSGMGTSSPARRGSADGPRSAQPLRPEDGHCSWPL
The assay can be described thus: Jurkat-PD-1 Cell Binding High-Content Screening Assay (CBA): Method 1. The conditions noted are these: Jurkat-hPD-1 cells, PE-labeled PD-L1-Ig 20 nM final; read-out: Jurkat HPDL1 PD1 IC50 (uM) (Method 1).
For the compound `CC(C)C[C@@H]1NC(=O)[C@H](Cc2c[nH]c3ccccc23)NC(=O)[C@H](CC(=O)O)NC(=O)[C@H](Cc2ccc(C#N)cc2)NC(=O)[C@H](Cc2ccccc2)NC(=O)CSC[C@@H](C(=O)NCC(N)=O)NC(=O)[C@H](CO)NC(=O)[C@H](C(C)C)NC(=O)[C@H](CC(C)C)NC(=O)[C@H](CC(N)=O)NC(=O)[C@@H](CC(C)C)NC(=O)[C@H](C)N(C)C(=O)[C@H](C(C)C)NC(=O)[C@H](Cc2ccc(-c3ccccc3)cc2)NC1=O` [Compound 1525] ({CH2CO}-F[Phe(4-CN)]DWL[Bip]V[NMeA][dL]NLVSCG-NH2; thioether N-14), the 50% inhibitory concentration (IC50) (commonly the concentration at which inhibition is half-maximal) stood at 0.03 µM.
As for `Cc1cccc(C[C@@H]2NC(=O)[C@H](CC(=O)O)NC(=O)[C@H](Cc3ccc(OCC(=O)O)cc3)NC(=O)[C@H](Cc3ccncc3)NC(=O)CSC[C@@H](C(=O)N[C@@H](CCN)C(N)=O)NC(=O)[C@H](CO)NC(=O)[C@H](C(C)C)NC(=O)[C@H](CC3CCCCC3)NC(=O)[C@H](CCN)NC(=O)[C@@H](CC(C)C)NC(=O)[C@H](C)N(C)C(=O)[C@H](Cc3ccc(OCC(=O)O)cc3)NC(=O)[C@H](Cc3ccc(-c4ccccc4)cc3)NC(=O)[C@H](Cc3ccc(OCC(=O)O)cc3)NC2=O)c1` [Compound 1860] ({CH2CO}-[4Pal]Y(Carboxymethyl)D[Phe(3-Me)]Y(Carboxymethyl)[Bip]Y(Carboxymethyl)[NMeA][dL][Dab][Cha]VSC[Dab]-NH2; thioether N-14), the IC50 is 0.01 µM.
For the compound `CC(C)C[C@@H]1NC(=O)[C@H](CCN)NC(=O)[C@@H](CC(C)C)NC(=O)[C@H](C)N(C)C(=O)[C@H](CCCNC(N)=O)NC(=O)[C@H](Cc2ccc(-c3ccccc3)cc2)NC(=O)[C@H](C(C)C)NC(=O)[C@H](Cc2c[nH]c3ccccc23)NC(=O)[C@H](CC(=O)O)NC(=O)[C@H](Cc2ccccn2)NC(=O)[C@H](Cc2cccnc2)NC(=O)CSC[C@@H](C(=O)N[C@@H](C)C(N)=O)NC(=O)[C@H]([C@@H](C)O)NC(=O)[C@H](C(C)C)NC1=O` [Compound 1334] ({CH2CO}-[3Pal][2Pal]DWV[Bip][Cit][NMeA][dL][Dab]LVTCA-NH2; thioether N-14), the IC50 turned out to be 0.63 µM.
`CCNC(=O)[C@H](CCN)NC(=O)[C@@H]1CSCC(=O)N[C@@H](Cc2ccncc2)C(=O)N[C@@H](Cc2ccc(OCC(=O)O)cc2)C(=O)N[C@@H](CC(=O)O)C(=O)N[C@@H](Cc2cccc(C)c2)C(=O)N[C@@H](Cc2cccc(F)c2)C(=O)N[C@@H](Cc2ccc(-c3ccccc3)cc2)C(=O)N[C@@H](Cc2ccc(OCC(=O)O)cc2)C(=O)N(C)[C@@H](C)C(=O)N[C@H](CC(C)C)C(=O)N[C@@H](CCN)C(=O)N[C@@H](CC2CCCCC2)C(=O)N[C@@H](C(C)(C)O)C(=O)N[C@@H](CO)C(=O)N1` [Compound 1845] ({CH2CO}-[4Pal]Y(Carboxymethyl)D[Phe(3-Me)][Phe(3-F)][Bip]Y(Carboxymethyl)[NMeA][dL][Dab][Cha][Val(3-OH)]SC[Dab]-NHEt; thioether N-14): the concentration for half-maximal inhibition (IC50) is 0.01 µM.
Under `CCC(C)[C@@H]1NC(=O)[C@H](Cc2ccc(-c3ccccc3)cc2)NC(=O)[C@H](CC(C)C)NC(=O)[C@H](Cc2c[nH]c3ccccc23)NC(=O)[C@H](CC(=O)O)NC(=O)[C@H](Cc2ccc(C(=O)O)cc2)NC(=O)[C@H](Cc2ccc(OCC(=O)O)cc2)NC(=O)CSC[C@@H](C(=O)N[C@@H](CCN)C(N)=O)NC(=O)[C@H](CCC(N)=O)NC(=O)[C@H](C(C)C)NC(=O)[C@H](CC2CCCCC2)NC(=O)[C@H](CCN)NC(=O)[C@@H](CC(C)C)NC(=O)[C@H](C)N(C)C1=O` (stereo partly drawn) [Compound 1927] ({CH2CO}-Y(Carboxymethyl)[Phe(4-COOH)]DWL[Bip][Ile(3ξ)][NMeA][dL][Dab][Cha]VQC[Dab]-NH2; thioether N-14) stands 0.01 µM; under `CCC(C)[C@@H]1NC(=O)[C@H](Cc2ccc(-c3ccccc3)cc2)NC(=O)[C@H](C(C)C)NC(=O)[C@H](Cc2c[nH]c3ccccc23)NC(=O)[C@H](CC(=O)O)NC(=O)[C@H](Cc2ccc(O)cc2)NC(=O)[C@H](Cc2cccc3[nH]ccc23)NC(=O)CSC[C@@H](C(=O)N[C@@H](C)C(N)=O)NC(=O)[C@H](C(C)O)NC(=O)[C@H](C(C)C)NC(=O)[C@H](CC2CCCCC2)NC(=O)[C@H](CCN)NC(=O)[C@@H](CC(C)C)NC(=O)[C@H](C)N(C)C1=O` (stereo partly drawn) [Compound 2053] ({CH2CO}-[Ala(indol-4-yl)]YDWV[Bip][Ile(3ξ)][NMeA][dL][Dab][Cha]V[Thr(3ξ)]CA-NH2; thioether N-14), 0.03 µM; under `CC(=O)C[C@@H]1NC(=O)CSC[C@@H](C(=O)NCC(N)=O)NC(=O)[C@H](CO)NC(=O)[C@H](C(C)C)NC(=O)[C@H](CC(C)C)NC(=O)[C@H](CCCNC(=N)N)NC(=O)[C@H](Cc2csc3ccccc23)NC(=O)[C@H](C)N(C)C(=O)[C@H](CCCNC(=N)N)NC(=O)[C@H](Cc2ccc(-c3ccccc3)cc2)NC(=O)[C@H](C(C)C)NC(=O)[C@H](Cc2c[nH]c3ccccc23)NC(=O)[C@H](CC(=O)O)NC(=O)[C@H](Cc2ccc(O)cc2)NC1=O` [Compound 1027] ({CH2CO}-[Nva(4-oxo)]YDWV[Bip]R[NMeA][Bta]RLVSCG-NH2; thioether N-14), 0.21 µM.
On to `CC(C)C[C@@H]1NC(=O)[C@H](Cc2c[nH]c3ccccc23)NC(=O)[C@H](CC(=O)O)NC(=O)[C@H](Cc2ccc(OCC(=O)O)cc2)NC(=O)[C@H](Cc2cnc[nH]2)NC(=O)CSC[C@@H](C(=O)N[C@@H](C)C(N)=O)NC(=O)[C@H](CO)NC(=O)[C@H](C(C)C)NC(=O)[C@H](CC(C)C)NC(=O)[C@H](CC(N)=O)NC(=O)[C@@H](C)NC(=O)[C@H](C)N(C)C(=O)[C@H](C(C)C)NC(=O)[C@H](Cc2ccc(-c3ccccc3)cc2)NC1=O` [Compound 1799] ({CH2CO}-HY(Carboxymethyl)DWL[Bip]V[NMeA][dA]NLVSCA-NH2; thioether N-14), for which the IC50 turned out to be 0.18 µM.
The value for `Cc1cccc(C[C@@H]2NC(=O)[C@H](CC(=O)O)NC(=O)[C@H](Cc3ccc(C(=O)O)cc3)NC(=O)[C@H](Cc3ccncc3)NC(=O)CSC[C@@H](C(=O)N[C@@H](C)C(N)=O)NC(=O)[C@H]([C@@H](C)O)NC(=O)[C@H](C(C)C)NC(=O)[C@H](CC(C)C)NC(=O)[C@H](CCN)NC(=O)[C@@H](CC(C)C)NC(=O)[C@H](C)N(C)C(=O)[C@H](CCCNC(N)=O)NC(=O)[C@H](Cc3ccc(-c4ccccc4)cc3)NC(=O)[C@H](C(C)C)NC2=O)c1` [Compound 1431] ({CH2CO}-[4Pal][Phe(4-COOH)]D[Phe(3-Me)]V[Bip][Cit][NMeA][dL][Dab]LVTCA-NH2; thioether N-14) was 0.01 µM; that for `CC(C)C[C@@H]1NC(=O)[C@H](Cc2c[nH]c3ccccc23)NC(=O)[C@H](CC(=O)O)NC(=O)[C@H](Cc2ccc(C(=O)O)cc2)NC(=O)[C@H](Cc2ccccc2)NC(=O)CSC[C@@H](C(=O)NCC(N)=O)NC(=O)[C@H](CO)NC(=O)[C@H](C(C)C)NC(=O)[C@H](CC(C)C)NC(=O)[C@H](CC(N)=O)NC(=O)[C@@H](CC(C)C)NC(=O)[C@H](C)N(C)C(=O)[C@H](C(C)C)NC(=O)[C@H](Cc2ccc(-c3ccccc3)cc2)NC1=O` [Compound 1528] ({CH2CO}-F[Phe(4-COOH)]DWL[Bip]V[NMeA][dL]NLVSCG-NH2; thioether N-14) was 0.01 µM; that for `Cc1cccc(C[C@@H]2NC(=O)[C@H](CC(=O)O)NC(=O)[C@H](Cc3cccnc3)NC(=O)[C@H](CN)NC(=O)CSC[C@@H](C(=O)N[C@@H](C)C(N)=O)NC(=O)[C@H](CO)NC(=O)[C@H](C(C)C)NC(=O)[C@H](CC(C)C)NC(=O)[C@H](CC(N)=O)NC(=O)[C@@H](C)NC(=O)[C@H](C)N(C)C(=O)[C@H](C(C)C)NC(=O)[C@H](Cc3ccc(-c4ccccc4)cc3)NC(=O)[C@H](CC(C)C)NC2=O)c1` [Compound 1584] ({CH2CO}-[Dap][3Pal]D[Phe(3-Me)]L[Bip]V[NMeA][dA]NLVSCA-NH2; thioether N-14) was 0.02 µM.
For the compound `CC(C)C[C@@H]1NC(=O)[C@H](CCCN)NC(=O)[C@@H](CC(C)C)NC(=O)[C@H](C)N(C)C(=O)[C@H](CCCNC(=N)N)NC(=O)[C@H](Cc2ccc(-c3ccccc3)cc2)NC(=O)[C@H](C(C)C)NC(=O)[C@H](Cc2c[nH]c3ccccc23)NC(=O)[C@H](CC(=O)O)NC(=O)[C@H](Cc2ccc(O)cc2)NC(=O)[C@H](Cc2ccccc2)NC(=O)CSC[C@@H](C(=O)N[C@@H](C)C(N)=O)NC(=O)[C@H]([C@@H](C)O)NC(=O)[C@H](C(C)C)NC1=O` [Compound 1119] ({CH2CO}-FYDWV[Bip]R[NMeA][dL][Orn]LVTCA-NH2; thioether N-14), the IC50 turned out to be 0.03 µM.
Consider `CC(C)C[C@@H]1NC(=O)[C@H](CCCNC(=N)N)NC(=O)[C@@H](CC(C)C)NC(=O)[C@H](C)N(C)C(=O)[C@H](CCCNC(N)=O)NC(=O)[C@H](Cc2ccc(-c3ccccc3)cc2)NC(=O)[C@H](C(C)C)NC(=O)[C@H](Cc2c[nH]c3ccccc23)NC(=O)[C@H](CC(=O)O)NC(=O)[C@H](Cc2ccc(O)cc2)NC(=O)[C@H](CC(N)=O)NC(=O)CSC[C@@H](C(=O)N[C@@H](C)C(N)=O)NC(=O)[C@H]([C@@H](C)O)NC(=O)[C@H](C(C)C)NC1=O` [Compound 1166] ({CH2CO}-NYDWV[Bip][Cit][NMeA][dL]RLVTCA-NH2; thioether N-14), for which the half-inhibitory concentration (IC50) amounted to 0.06 µM.
For `Cc1cccc(C[C@@H]2NC(=O)[C@H](CC(=O)O)NC(=O)[C@H](Cc3ccc(OCC(=O)O)cc3)NC(=O)[C@H](CC(N)=O)NC(=O)CSC[C@@H](C(N)=O)NC(=O)[C@H](CC(N)=O)NC(=O)[C@H](C(C)C)NC(=O)[C@H](CC3CCCCC3)NC(=O)[C@H](CCN)NC(=O)[C@@H](CC(C)C)NC(=O)[C@H](C)N(C)C(=O)[C@H](Cc3ccc(OCC(=O)O)cc3)NC(=O)[C@H](Cc3ccc(-c4ccccc4)cc3)NC(=O)[C@H](Cc3ccc(OCC(=O)O)cc3)NC2=O)c1` [Compound 1664] ({CH2CO}-NY(Carboxymethyl)D[Phe(3-Me)]Y(Carboxymethyl)[Bip]Y(Carboxymethyl)[NMeA][dL][Dab][Cha]VNC-NH2; thioether N-14), the IC50 was determined as 0.05 µM.
